Test results published in patent US8916526B2, “Flavanone derivative” (National University Corporation Okayama University, priority 2009, dated 2014).
Converted amounts (≈) assume the structure as drawn. Read-outs that look alike come from different tables or passages of the source.

Legend:
[1] = Acute toxicity evaluation experiment; conditions: ICR mice, observed over 7 days, four mice
Method: (§4) An acute toxicity test of the compound of the present invention was carried out using ICR mice as experimental animals.

[2] = target: T1, DNA gyrase of Escherichia coli (Escherichia coli, UniProt P0AES4+P0AES6); test: DNA gyrase inhibition (supercoiling assay kit), Exp. Ex. 1-2; format: biochemical; conditions: for Gyrase inhibitory activity IC50 / IC50: E. coli DNA gyrase supercoiling, relaxed pBR322, 37° C., 30 minutes; for IC50: read-out: Gyrase inhibitory activity IC50 (converted)
T1 construct: purchased John Innes Enterprises #K0001
Method: As a kit for measurement of DNA gyrase of Escherichia coli, a product purchased from John Innes Enterprises (Gyrase Supercoiling assay kit #K0001) was used. Relaxed DNA was modified with gyrase into supercoiled DNA, and reaction products were separated by electrophoresis depending on the sizes of the molecular weights to examine anti-gyrase effects (IC50). One unit (1 U) of DNA gyrase and […] of relaxed pBR322 DNA were added to […] of the reaction solution, and the mixture was allowed to react at 37° C. for 30 minutes in the presence of 35 mM Tris-HCl (pH 7.5), 24 mM KCl, 4 mM MgCl2, 2 mM DTT, 1.8 mM spermidine, 1 mM ATP, 6.5% (w/v) glycerol, and 0.1 mg/ml BSA. The reactions were stopped using […] of a reaction stop solution (40% sucrose, 100 mM Tris-HCl (pH 7.5), 1 mM EDTA, 0.5 mg/ml bromophenol blue).

VRE FN-1 = test: In vitro infectivity assay (MIC), broth dilution, Exp. Ex. 1-1; format: cell-based, enterococci; conditions: for MIC: Enterococcus, read-out: MIC VRE FN-1
Method: (§1) The antibacterial activities were measured based on broth dilution techniques of international standards (Clinical Laboratory Standards Institute: CLSI). The activities were shown by minimum inhibitory concentrations (MICs) determined by inoculating the above-mentioned strains at a concentration of about 10^5 […] into Mueller-Hinton broth (manufactured by Difco) containing 0.85% NaCl in 96-well microplates and incubating the plates at 35° C. for 24 hours. Measurement was carried out three times.
(§2) The antibacterial activities of the compounds of the present invention against various strains such as methicillin-resistant Staphylococcus aureus (MRSA), vancomycin intermediate-resistant Staphylococcus aureus (VISA), methicillin-sensitive Staphylococcus aureus (MSSA), and vancomycin-resistant enterococci (VRE) were examined. Of the bacteria used in MIC measurement in this test example, clinical bacteria of MRSA (OM481 strain and OM584 strain) were supplied from Okayama University Hospital (Japan). An MRSA strain N315, a vancomycin intermediate-resistant Staphylococcus aureus (VISA) strain Mu50, and a methicillin-sensitive Staphylococcus aureus (MSSA) strain FDA 209P were used as controls. Vancomycin-resistant enterococcus (VRE) strains NCTC 12201 and FN-1 were supplied from the National Institute of Infectious Disease (Japan).

VRE NCTC12201 = test: as above; format: cell-based, enterococci; conditions: for MIC: Enterococcus, read-out: MIC VRE NCTC12201
Method: as §1, §2

[3] = tested on: various strains such as MRSA, VISA, MSSA and VRE; test: In vitro infectivity assay (MIC), Exp. Ex. 1-1, strains taken together; format: cell-based, Staphylococcus aureus, enterococci; conditions: summary of Table 1
Method: as §1, §2

VISA Mu50 = test: In vitro infectivity assay (MIC), broth dilution, Exp. Ex. 1-1; format: cell-based, Staphylococcus aureus; conditions: for MIC: Staphylococcus aureus, read-out: MIC VISA Mu50
Method: as §1, §2

MRSA N315 = test: as above; format: cell-based, Staphylococcus aureus; conditions: for MIC: Staphylococcus aureus, read-out: MIC MRSA N315
Method: as §1, §2

MRSA OM481 = test: as above; format: cell-based, Staphylococcus aureus; conditions: for MIC: Staphylococcus aureus, read-out: MIC MRSA OM481
Method: as §1, §2

MRSA OM58 = test: as above; format: cell-based, Staphylococcus aureus; conditions: for MIC: Staphylococcus aureus, read-out: MIC MRSA OM58
Method: as §1, §2

MSSA FDA 209P = test: as above; format: cell-based, Staphylococcus aureus; conditions: for MIC: Staphylococcus aureus, read-out: MIC MSS 209P
Method: as §1, §2

[4] = mouse, in vivo, 10 mg/kg
Method: as §4

[5] = tested on: Vancomycin-resistant enterococci NCTC 12201; test: In vitro infectivity assay (MIC), Exp. Ex. 2-1; format: cell-based; conditions: Enterococcus, NCTC 12201 / VRE, 24 h, read-out: MIC VRE NCTC 12201
How it was run: (§3)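 CLSI broth dilution; Mueller-Hinton + 0.85% NaCl; inoculum ~10^5 CUF/[…]; 35° C, 24 h; MIC read, n=3.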

[6] = tested on: Vancomycin-resistant enterococci FN-1; test: In vitro infectivity assay (MIC), Exp. Ex. 2-1; format: cell-based; conditions: Enterococcus, VRE, 24 h, read-out: MIC VRE FN-1
How it was run: as §3

[7] = tested on: Vancomycin intermediate-resistant Staphylococcus aureus Mu50; test: In vitro infectivity assay (MIC), Exp. Ex. 2-1; format: cell-based; conditions: Staphylococcus aureus, VISA, 24 h, read-out: MIC VISA Mu50
How it was run: as §3

[8] = tested on: Methicillin-resistant S. aureus COL; test: In vitro infectivity assay (MIC), Exp. Ex. 2-1; format: cell-based; conditions: Staphylococcus aureus, MRSA, 24 h, read-out: MIC MRSA COL
[9] = tested on: Streptococcus pneumoniae R6; test: In vitro infectivity assay (MIC), Exp. Ex. 2-1; format: cell-based; conditions: Streptococcus pneumoniae, R6, 24 h, read-out: MIC S. Pneumoniae R6
[10] = tested on: Methicillin-resistant S. aureus OM481; test: In vitro infectivity assay (MIC), Exp. Ex. 2-1; format: cell-based, Staphylococcus aureus; conditions: Staphylococcus aureus, MRSA, 24 h, read-out: MIC MRSA OM481
How it was run: as §3

[11] = tested on: Methicillin sensitive S. aureus 209P; test: In vitro infectivity assay (MIC), Exp. Ex. 2-1; format: cell-based, Staphylococcus aureus; conditions: Staphylococcus aureus, 209P / MSSA, 24 h, read-out: MIC MSSA 209P
How it was run: as §3

[12] = tested on: Methicillin-resistant S. aureus OM584; test: In vitro infectivity assay (MIC), Exp. Ex. 2-1; format: cell-based, Staphylococcus aureus; conditions: Staphylococcus aureus, MRSA, 24 h, read-out: MIC MRSA OM584
How it was run: as §3

[13] = tested on: Methicillin-resistant S. aureus N315; test: In vitro infectivity assay (MIC), Exp. Ex. 2-1; format: cell-based, Staphylococcus aureus; conditions: Staphylococcus aureus, MRSA, 24 h, read-out: MIC MRSA N315
How it was run: as §3

[14] = VRE FN-1, Mueller-Hinton broth, 35° C., 24 hours
[15] = VRE NCTC12201, Mueller-Hinton broth, 35° C., 24 hours
[16] = VISA Mu50, Mueller-Hinton broth, 35° C., 24 hours
[17] = MRSA N315, Mueller-Hinton broth, 35° C., 24 hours
[18] = MRSA OM481, Mueller-Hinton broth, 35° C., 24 hours
[19] = MRSA OM58, Mueller-Hinton broth, 35° C., 24 hours
[20] = MSSA FDA 209P, Mueller-Hinton broth, 35° C., 24 hours

T1 sequence (P0AES4 whole entry, one chain of several): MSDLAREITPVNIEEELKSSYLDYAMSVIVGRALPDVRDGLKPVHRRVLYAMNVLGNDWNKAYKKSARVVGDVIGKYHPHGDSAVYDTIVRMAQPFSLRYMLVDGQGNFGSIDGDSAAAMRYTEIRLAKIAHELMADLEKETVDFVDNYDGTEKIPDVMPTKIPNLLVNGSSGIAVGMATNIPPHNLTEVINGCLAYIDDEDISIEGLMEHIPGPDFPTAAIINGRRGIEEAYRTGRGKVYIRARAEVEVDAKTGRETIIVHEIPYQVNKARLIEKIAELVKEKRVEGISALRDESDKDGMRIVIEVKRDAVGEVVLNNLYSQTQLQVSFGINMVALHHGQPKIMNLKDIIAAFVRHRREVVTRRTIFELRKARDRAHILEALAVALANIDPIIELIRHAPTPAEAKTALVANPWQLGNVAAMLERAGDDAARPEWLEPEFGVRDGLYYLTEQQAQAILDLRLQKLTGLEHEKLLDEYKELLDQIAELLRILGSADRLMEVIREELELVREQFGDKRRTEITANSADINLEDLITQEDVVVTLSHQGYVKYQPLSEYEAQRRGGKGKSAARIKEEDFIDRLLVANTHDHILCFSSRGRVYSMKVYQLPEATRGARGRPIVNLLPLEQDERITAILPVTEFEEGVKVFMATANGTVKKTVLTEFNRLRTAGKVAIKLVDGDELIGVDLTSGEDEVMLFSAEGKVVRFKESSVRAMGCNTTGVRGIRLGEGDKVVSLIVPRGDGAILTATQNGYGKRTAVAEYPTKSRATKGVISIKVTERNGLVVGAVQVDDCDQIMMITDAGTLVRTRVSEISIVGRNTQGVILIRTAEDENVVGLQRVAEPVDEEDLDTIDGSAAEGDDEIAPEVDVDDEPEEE

| Compound | Gyrase inhibitory activity IC50 [2] | MIC VRE FN-1 (VRE FN-1; [14]) | MIC VRE NCTC 12201 (VRE NCTC12201; [15]) | Antibacterial activities against the vancomycin resistant bacteria such as VRE and VISA (in words) [3] | MIC VISA Mu50 (VISA Mu50; [16]) | MIC MRSA N315 (MRSA N315; [17]) | MIC MRSA OM481 (MRSA OM481; [18]) | MIC MRSA OM58 (MRSA OM58; [19]) | MIC MSS 209P (MSSA FDA 209P; [20]) | IC50 [2] | MIC (VRE FN-1; [14]) | MIC (VRE NCTC12201; [15]) | MIC (VISA Mu50; [16]) | MIC (MRSA N315; [17]) | MIC (MRSA OM481; [18]) | MIC (MRSA OM58; [19]) | MIC (MSSA FDA 209P; [20]) | melting point | also measured |
| --- | --- | --- | --- | --- | --- | --- | --- | --- | --- | --- | --- | --- | --- | --- | --- | --- | --- | --- | --- |
| O=C(CCc1ccc(F)cc1)O[C@H]1[C@H](Oc2c(-c3ccc(O)c(O)c3)oc3cc(O)cc(O)c3c2=O)O[C@H](CO)[C@@H](O)[C@@H]1OC(=O)CCc1ccc(F)cc1 [Compound 15d, 2-(3′,4′-Dihydroxy)-5,7-dihydroxy-3-β-D-(2″,3″-di-p-flurophenylethylcarboxy)glucosyl-4H-chromen-4-one] | 0.22 µg/mL | 1 µg/mL (≈ 1.31 µM) | 1 µg/mL (≈ 1.31 µM) | strong antibacterial activities | 1 µg/mL (≈ 1.31 µM) | 0.25 µg/mL (≈ 0.327 µM) | 2 µg/mL (≈ 2.62 µM) | 2 µg/mL (≈ 2.62 µM) | 0.25 µg/mL (≈ 0.327 µM) |  |  |  |  |  |  |  |  |  | Mortality ([1]; 10 mg/kg for 4 consecutive days): All the mice were not dead until day 7; Mortality ([1]; 100 mg/kg for 4 consecutive days): all the mice in the group were dead on days 5 to 7 after administration; Gyrase inhibitory effect compared with norfloxacin (in words) ([2]; summary of Table 2): inhibitory effect equal to or greater than that of an existing gyrase inhibitor such as norfloxacin; Changes in the body weights [4]: the body weights were slightly reduced from the day after administration, but the body weights of all the four mice were recovered from about day 5 after administration |
| Cc1ccc(CCC(=O)O[C@H]2[C@H](Oc3c(-c4ccc(O)c(O)c4)oc4cc(O)cc(O)c4c3=O)O[C@H](CO)[C@@H](O)[C@@H]2OC(=O)CCc2ccc(C)cc2)cc1 [Compound 15c, 2-(3′,4′-Dihydroxy)-5,7-dihydroxy-3-β-D-(2″,3″-di-p-methylphenylethylcarboxy)glucosyl-4H-chromen-4-one] | 3.50 µg/mL | 2 µg/mL (≈ 2.64 µM) | 4 µg/mL (≈ 5.29 µM) | strong antibacterial activities | 1 µg/mL (≈ 1.32 µM) | 1 µg/mL (≈ 1.32 µM) | 2 µg/mL (≈ 2.64 µM) | 2 µg/mL (≈ 2.64 µM) | 1 µg/mL (≈ 1.32 µM) |  |  |  |  |  |  |  |  |  |  |
| CCCc1ccc(C(=O)O[C@H]2[C@H](Oc3c(-c4ccc(O)c(O)c4)oc4cc(O)cc(O)c4c3=O)O[C@H](CO)[C@@H](O)[C@@H]2OC(=O)c2ccc(CCC)cc2)cc1 [Compound 15f, 2-(3′,4′-Dihydroxy)-5,7-dihydroxy-3-β-D-(2″,3″-di-p-propylbenzoyloxy)glucosyl-4H-chromen-4-one] |  |  |  |  |  |  |  |  |  | 13.2 µM | 8 µg/mL (≈ 10.6 µM) | 8 µg/mL (≈ 10.6 µM) | 16 µg/mL (≈ 21.1 µM) | 8 µg/mL (≈ 10.6 µM) | 32 µg/mL (≈ 42.3 µM) | 32 µg/mL (≈ 42.3 µM) | 8 µg/mL (≈ 10.6 µM) | 152 to 153 °C |  |
| CN[C@H](CC(C)C)C(=O)N[C@H]1C(=O)N[C@@H](CC(N)=O)C(=O)N[C@H]2C(=O)N[C@H]3C(=O)N[C@H](C(=O)N[C@H](C(=O)O)c4cc(O)cc(O)c4-c4cc3ccc4O)[C@H](O)c3ccc(c(Cl)c3)Oc3cc2cc(c3O[C@@H]2O[C@H](CO)[C@@H](O)[C@H](O)[C@H]2O[C@H]2C[C@](C)(N)[C@H](O)[C@H](C)O2)Oc2ccc(cc2Cl)[C@H]1O [Vancomycin, vancomycin, reference compound] |  |  |  |  |  |  |  |  |  |  |  |  |  |  |  |  |  |  | MIC [5]: > 128 µg/mL; MIC [6]: > 128 µg/mL; MIC [7]: 8 µg/mL (≈ 5.52 µM); MIC [8]: 0.25 µg/mL (≈ 0.173 µM); MIC (VRE FN-1; VRE, 24 h): > 128 µg/mL; MIC (VRE NCTC12201; 24 h): > 128 µg/mL; MIC [9]: 0.25 µg/mL (≈ 0.173 µM); MIC (VISA Mu50; VISA, 24 h): 8 µg/mL (≈ 5.52 µM); MIC (MRSA N315; MRSA, 24 h): 0.25 µg/mL (≈ 0.173 µM); MIC (MRSA OM481; MRSA, 24 h): 0.25 µg/mL (≈ 0.173 µM); MIC (MRSA OM58; MRSA, 24 h): 0.25 µg/mL (≈ 0.173 µM); MIC (MSSA FDA 209P; 24 h): 0.25 µg/mL (≈ 0.173 µM); MIC [10]: 0.25 µg/mL (≈ 0.173 µM); MIC [11]: 0.25 µg/mL (≈ 0.173 µM); MIC [12]: 0.25 µg/mL (≈ 0.173 µM); MIC [13]: 0.25 µg/mL (≈ 0.173 µM) |
| CC(=O)OC[C@H]1O[C@@H](Oc2c(-c3ccc(O)c(O)c3)oc3cc(O)cc(O)c3c2=O)[C@H](OC(C)=O)[C@@H](OC(C)=O)[C@@H]1OC(C)=O [Compound 16, 2-(3′4′-Dihydroxy)-5,7-dihydroxy-3-β-D-tetraacetylglucosyl-4H-chromen-4-one] |  |  |  |  |  |  |  |  |  | > 19 µM | > 128 µg/mL | > 128 µg/mL | > 128 µg/mL | 128 µg/mL (≈ 202 µM) | 128 µg/mL (≈ 202 µM) | 128 µg/mL (≈ 202 µM) | 128 µg/mL (≈ 202 µM) | 109 to 110 °C |  |
| 2-(3′,4′-Dihydroxy)-5,7-dihydroxy-3-β-D-(2″,3″-di-p-flurobenzyloxy)glucosyl-4H-chromen-4-one [Compound 15h] |  | 8 µg/mL | 8 µg/mL | strong antibacterial activities | 2 µg/mL | 2 µg/mL | 8 µg/mL | 8 µg/mL | 2 µg/mL |  |  |  |  |  |  |  |  |  |  |
